Measurements reported in US20250161245A1, “A MIXTURE OF UREA, BIURET AND N-CONTAINING BY-PRODUCTS CREATED DURING BIURET PRODUCTION AS A DIETARY NON-PROTEIN NITROGEN-SOURCE FOR RUMINANTS AND USES THEREOF” (Yara International ASA, priority 2022, published 2025).

Tested on: ruminal microorganisms
Experiment: dual-flow continuous culture fermenters simulating rumen fermentation (Example 2)
Assay type: cell-based, Holstein dairy cows
Settings: NPN 0.51 wt. % urea or 0.55 wt. % UB of diet DM
Protocol: In this example, an in vitro assay was performed using dual-flow continuous culture fermenters, aiming to simulate rumen fermentation.
Eight 1320 ml dual-flow continuous culture fermenters were used in two replicated periods. Each period consisted out of 5 days for adaptation of the ruminal fluid to the treatments and 3 days for sampling. On the first day of each period, all fermenters were inoculated with undiluted ruminal fluid filtered through two layers of cheesecloth to remove the feed particles. The fermentation conditions were constant, i.e. • a temperature of 39° C., • a pH of 6.4±0.05 by infusion of 3 N HCl or 5 N NaOH, • anaerobiosis with continued infusion of N2 gas at a rate of 40 ml/min, and • continued infusion of artificial saliva to obtain liquid and solid dilution rates of 10%/h and 5%/h, respectively.
The fermenters were fed 95 grams/day of dry matter of a diet formulated to meet or exceed current nutrients recommendations for lactating dairy cows, i.e. • 166 g/kg crude protein (CP), • 323 g/kg neutral detergent fiber (NDF), and • 201 g/kg acid detergent fiber (ADF),
And were fed in three daily administrations, i.e. at 7, 15 and 23 o'clock with a forage: concentrate diet in a range of 53:47.
Ruminal fluid was taken from two Holstein dairy cows fitted with ruminal cannulas fed with a 60:40 forage:concentrate diet with alfalfa and cracked grain (11 kg dry matter/cow/day). The afternoon before the ruminal extraction, the ruminant animals were not fed.
The NPN-dietary treatments were as follows: • Control: basal diet to which 0.51 wt. % urea was added, with wt. % on dry matter basis, • Diet: basal diet to which 0.55 wt. % of the mixture according to the present disclosure, with composition as in example 1, was added, with wt. % on dry matter basis.
On the second day of sampling, 4 ml of filtered fermenter fluid was taken 2 hours after the morning feeding to determine VFA-concentrations.
During sampling days, the collection vessels were maintained at 4° C. to prevent microbial activity. Solid and liquid effluents from 3 sampling days were composited and mixed within the fermenter and homogenized. Subsamples were taken for the analyses of the volatile fatty acids (VFA). The remainder of the sample was lyophilized (freeze drying) and the dry samples were analyzed for DM, ash, N and purines to calculate bacterial nitrogen and organic matter content (OM).
Bacterial cells were obtained from the fermenter flasks the last day of each experimental period. Solid and liquid associated bacteria were isolated using a combination several detachment procedures selected to obtain the maximum detachment without affecting the cell integrity. The bacterial cells were lyophilized and the dry samples were analyzed for dry matter (DM), ash, N and purines to calculate bacterial nitrogen.
Effluent dry matter (DM) was determined by lyophilizing 300 ml aliquots in triplicate. The DM content of the diets and bacterial samples were determined by drying samples for 24 hours in an 103° C. forced air oven (see AOAC, 1990; method 950.01).
Dry samples of diets, effluents and bacteria were ashed overnight at 550° C. in a muffle furnace (see AOAC, 1990, method 976.05) and organic matter (OM) was determined by difference. Total N of diets, effluents and bacterial samples were determined by a Kjeldhal method (AOAC, 1990; method 976.05). Sample crude protein (CP) was calculated as N×6.25. Effluent CP was determined in liquid samples. Crude protein degradation was calculated as the difference between CP in the diet minus CP in the effluent and expressed as wt. % of DM. The EMPS was determined by dividing bacterial N by fermented organic matter.
The fiber components of the diets and the effluents were analyzed sequentially using a thermostable alpha-amylase and sodium sulfite and expressed without residual ash.
The samples for the VFA-analysis were prepared as described by Jouany, J. P., and J. Senaud. […]

NC(N)=O [Urea, urea]
Acetate to propionate ratio: 3.5
CP degradation: 47.7 % of dry matter
EMPS: 35.7 g bacterial N/kg of fermented organic matter
True digestibility DM: 53.53 wt. % of DM
True digestibility OM: 52.95 wt. % of DM
VFA Acetate: 62.92
VFA Propionate: 18.18
